# Assay results from the supplement of paper PMC10307832.
# Tests used:
# Assay in all cases: relative viability (nuclei count vs DMSO), 5 days (fraction); higher = more cells survive
# RAF265 + Phenformin = compound: Cn1c(Nc2ccc(C(F)(F)F)cc2)nc2cc(Oc3ccnc(-c4ncc(C(F)(F)F)[nH]4)c3)ccc21 [RAF265] + N=C(N)NC(=N)NCCc1ccccc1 [Phenformin] (partner 250 µM)
# Method in brief: (§1)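 Relative viability was taken as the ratio of nuclei in treated wells to nuclei in vehicle wells. Lung cancer cell lines in 1536-well plates received compounds by pin tool one day after seeding, either one drug alone or a fixed anchor-drug dose plus five library-drug doses (not always all listed) in √10 steps. Nuclei were counted on 4× images after 5 days of treatment, and values are medians of duplicate plates.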
# IPA-3 + Palbociclib = compound: C1=CC=C2C(=C1)C=CC(=C2SSC3=C(C=CC4=CC=CC=C43)O)O [IPA-3] + CC(=O)c1c(C)c2cnc(Nc3ccc(N4CCNCC4)cn3)nc2n(C2CCCC2)c1=O [Palbociclib] (partner 0.5 µM)
# Method in brief: as §1
# Doramapimod + Olaparib = compound: Cc1ccc(-n2nc(C(C)(C)C)cc2NC(=O)Nc2ccc(OCCN3CCOCC3)c3ccccc23)cc1 [Doramapimod] + O=C(c1cc(Cc2n[nH]c(=O)c3ccccc23)ccc1F)N1CCN(C(=O)C2CC2)CC1 [Olaparib] (partner 8 µM)
# Method in brief: as §1
# Doramapimod + Phenformin = compound: Cc1ccc(-n2nc(C(C)(C)C)cc2NC(=O)Nc2ccc(OCCN3CCOCC3)c3ccccc23)cc1 [Doramapimod] + N=C(N)NC(=N)NCCc1ccccc1 [Phenformin] (partner 250 µM)
# Method in brief: as §1
Cell Line,relative viability (RAF265 + Phenformin; first compound 0.01 µM),relative viability (RAF265 + Phenformin; first compound 0.03162 µM),relative viability (RAF265 + Phenformin; first compound 0.1 µM),relative viability (RAF265 + Phenformin; first compound 0.3162 µM),relative viability (RAF265 + Phenformin; first compound 1 µM),relative viability (IPA-3 + Palbociclib; first compound 0.2 µM),relative viability (IPA-3 + Palbociclib; first compound 0.6325 µM),relative viability (IPA-3 + Palbociclib; first compound 2 µM),relative viability (IPA-3 + Palbociclib; first compound 6.325 µM),relative viability (IPA-3 + Palbociclib; first compound 20 µM),relative viability (Doramapimod + Olaparib; first compound 0.02 µM),relative viability (Doramapimod + Olaparib; first compound 0.06325 µM),relative viability (Doramapimod + Olaparib; first compound 0.2 µM),relative viability (Doramapimod + Olaparib; first compound 0.6325 µM),relative viability (Doramapimod + Olaparib; first compound 2 µM),relative viability (Doramapimod + Phenformin; first compound 0.02 µM),relative viability (Doramapimod + Phenformin; first compound 0.06325 µM),relative viability (Doramapimod + Phenformin; first compound 0.2 µM),relative viability (Doramapimod + Phenformin; first compound 0.6325 µM),relative viability (Doramapimod + Phenformin; first compound 2 µM)
SK-MES-1,0.62,0.404,0.341,0.263,0.2,0.326,0.308,0.332,0.277,0.238,0.707,0.694,0.638,0.683,0.607,0.634,0.648,0.648,0.628,0.568
NCI-H2405,0.424,0.372,0.384,0.344,0.261,0.561,0.49,0.519,0.529,0.544,0.912,0.828,0.765,0.816,0.836,0.402,0.374,0.335,0.423,0.316
NCI-H2023,0.421,0.407,0.391,0.353,0.322,0.441,0.347,0.414,0.442,0.41,0.546,0.534,0.491,0.563,0.456,0.413,0.379,0.404,0.415,0.323
NCI-H838,0.733,0.606,0.521,0.499,0.517,0.278,0.202,0.209,0.225,0.204,0.794,0.833,0.811,0.873,0.737,0.607,0.577,0.654,0.665,0.595
NCI-H661,0.258,0.27,0.275,0.281,0.261,0.406,0.434,0.389,0.435,0.366,0.797,0.756,0.785,0.717,0.75,0.297,0.272,0.274,0.289,0.308
NCI-H1734,0.458,0.376,0.32,0.317,0.257,0.366,0.19,0.359,0.345,0.361,0.572,0.595,0.587,0.573,0.497,0.332,0.344,0.344,0.355,0.289
NCI-H1650,0.55,0.438,0.49,0.333,0.361,0.472,0.314,0.328,0.311,0.327,0.82,0.831,0.682,0.874,0.884,0.464,0.419,0.482,0.655,0.233
NCI-H1944,0.192,0.202,0.184,0.168,0.143,0.333,0.326,0.389,0.384,0.334,0.394,0.434,0.438,0.409,0.371,0.181,0.201,0.196,0.227,0.166
LK-2,0.445,0.417,0.385,0.63,0.402,0.847,0.643,0.709,0.818,0.706,0.656,0.778,0.656,0.493,0.397,0.278,0.332,0.382,0.282,0.246
HCC-15,0.486,0.483,0.464,0.355,0.316,0.889,0.78,0.462,0.697,0.704,0.675,0.692,0.675,0.654,0.623,0.481,0.467,0.478,–,0.365
NCI-H727,0.531,0.502,0.452,0.341,0.398,0.671,0.784,0.644,0.63,0.625,0.711,0.723,0.772,0.726,0.595,0.652,0.498,0.445,0.544,0.576
HOP-62,0.676,0.505,0.638,0.557,0.576,0.435,0.365,0.414,0.451,0.513,0.315,0.369,0.424,0.495,0.467,0.685,0.706,0.753,0.682,0.646
NCI-H3122,0.386,0.385,0.386,–,0.348,0.185,0.174,0.176,0.219,0.203,0.694,0.62,0.721,0.599,0.599,0.381,0.423,0.407,0.38,0.36
NCI-H1395,0.438,0.444,0.423,0.409,0.387,0.681,0.524,0.634,0.608,0.61,0.463,0.462,0.466,0.498,0.421,0.483,0.474,0.44,0.485,0.365
NCI-H647,0.432,0.515,0.38,0.282,0.212,0.561,0.373,0.371,0.206,0.0359,0.475,0.488,0.509,0.443,0.444,0.436,0.593,0.614,0.543,0.494
NCI-H650,0.469,0.438,0.383,0.348,0.289,0.373,0.361,0.323,0.361,0.426,0.468,0.47,0.403,0.413,0.395,0.495,0.458,0.527,0.431,0.389
